Test results from PMC9358669, “Native metabolomics identifies the rivulariapeptolide family of protease inhibitors” (Nature Communications, 2022).
Like-named read-outs stand apart in the source and are kept apart here.

Tests used:
Chymotrypsin [1] = tested on: Chymotrypsin; parameters: method as in earlier work; conditions: cited from earlier work
Proteinase K = target: T1, Proteinase K (Parengyodontium album, UniProt P06873); experiment: Proteinase K inhibition, fluorogenic substrate assay (Suc-Ala-Ala-Pro-Phe-AMC); assay type: biochemical, Tritirachium album; conditions: 40 min pre-incubation; for IC50: mean, n = 3; for Mean (RFU/s): Proteinase K
T1 construct: purchased Roche
T1 sequence (P06873 106-384): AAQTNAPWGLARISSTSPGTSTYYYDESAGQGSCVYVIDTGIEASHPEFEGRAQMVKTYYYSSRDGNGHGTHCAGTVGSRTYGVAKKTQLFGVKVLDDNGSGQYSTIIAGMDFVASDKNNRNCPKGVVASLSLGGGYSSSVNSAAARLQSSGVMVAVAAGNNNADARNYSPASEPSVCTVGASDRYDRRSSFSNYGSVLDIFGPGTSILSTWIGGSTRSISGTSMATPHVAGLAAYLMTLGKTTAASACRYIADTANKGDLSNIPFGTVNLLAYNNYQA

Chymotrypsin [2] = target: T2, Chymotrypsin (Bos taurus, UniProt P00766); experiment: Chymotrypsin inhibition, fluorogenic substrate assay (Suc-Ala-Ala-Pro-Phe-AMC); assay type: biochemical; conditions: for Mean (RFU/s): Chymotrypsin
T2 construct: purchased Sigma-Aldrich

Elastase = target: T3, Elastase (Sus scrofa, UniProt P00772); experiment: Elastase inhibition, fluorogenic substrate assay (MeOSuc-Ala-Ala-Pro-Val-AMC); assay type: biochemical, Sus domesticus; conditions: 40 min pre-incubation; for IC50: mean, n = 3; for Mean (RFU/s): Elastase
T3 construct: purchased Sigma-Aldrich
T3 sequence (P00772 27-266): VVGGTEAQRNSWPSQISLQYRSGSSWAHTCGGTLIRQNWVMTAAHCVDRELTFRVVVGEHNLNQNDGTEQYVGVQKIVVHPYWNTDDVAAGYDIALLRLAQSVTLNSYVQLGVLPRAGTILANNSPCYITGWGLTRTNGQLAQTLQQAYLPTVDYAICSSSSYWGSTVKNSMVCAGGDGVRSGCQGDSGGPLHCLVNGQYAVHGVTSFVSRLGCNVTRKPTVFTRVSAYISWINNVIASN

[3] = Supplementary Table 5, Top 50 chymotrypsin inhibitors among Ahp-cyclodepsipeptides
[4] = inhibitor concentration 0.0508053 nM
[5] = inhibitor concentration 0.152416 nM
[6] = inhibitor concentration 0.457247 nM
[7] = inhibitor concentration 1.37174 nM
[8] = inhibitor concentration 4.11523 nM
[9] = inhibitor concentration 12.3457 nM
[10] = inhibitor concentration 37.037 nM
[11] = inhibitor concentration 111.111 nM
[12] = inhibitor concentration 333.333 nM
[13] = inhibitor concentration 1000 nM
[14] = inhibitor concentration 3000 nM
[15] = 40 min pre-incubation, mean, n = 3, read-out: IC50 Chymotrypsin
[16] = inhibitor concentration 0.0508053 nM, 40 min pre-incubation
[17] = inhibitor concentration 0.152416 nM, 40 min pre-incubation
[18] = inhibitor concentration 0.457247 nM, 40 min pre-incubation
[19] = inhibitor concentration 1.37174 nM, 40 min pre-incubation
[20] = inhibitor concentration 4.11523 nM, 40 min pre-incubation
[21] = inhibitor concentration 12.3457 nM, 40 min pre-incubation
[22] = inhibitor concentration 37.037 nM, 40 min pre-incubation
[23] = inhibitor concentration 111.111 nM, 40 min pre-incubation
[24] = inhibitor concentration 333.333 nM, 40 min pre-incubation
[25] = inhibitor concentration 1000 nM, 40 min pre-incubation
[26] = inhibitor concentration 3000 nM, 40 min pre-incubation
[27] = Supplementary Table 5, compounds of this study, read-out: Chymotrypsin IC50

## CC(C)C[C@@H]1NC(=O)[C@@H](NC(=O)[C@H](CCC(N)=O)NC(=O)C(C)C)[C@@H](C)OC(=O)[C@H](C(C)C)NC(=O)C(Cc2ccc(O)cc2)N(C)C(=O)[C@H](Cc2ccccc2)N2C(=O)[C@H](CC[C@H]2O)NC1=O (stereo partly shown) [Crocapeptin A2]
Chymotrypsin [1]; [3]
  IC50: 100 nM

## Micropeptin MM850
Chymotrypsin [1]; [3]
  IC50: 1700 nM

## CC[C@H](C)[C@@H]1NC(=O)[C@H](Cc2ccc(O)cc2)N(C)C(=O)[C@H]([C@@H](C)CC)N2C(=O)C(CCC2O)NC(=O)[C@H](CC(C)C)NC(=O)[C@@H]2C(OC1=O)C(C)CN2C(=O)[C@H](CCC(N)=O)NC(C)=O (stereo partly shown) [Nostopeptin B]
Chymotrypsin [1]; [3]
  IC50: 1600 nM

## CCCCCC(=O)N[C@@H](CCC(=O)O)C(=O)N[C@@H]1C(=O)N[C@@H](Cc2ccc(O)cc2)C(=O)N[C@H]2CC[C@@H](O)N(C2=O)[C@@H](Cc2ccccc2)C(=O)N(C)[C@@H](Cc2ccc(O)cc2)C(=O)N[C@@H](C(C)C)C(=O)O[C@@H]1C [Micropeptin C]
Chymotrypsin [1]; [3]
  IC50: 1100 nM

## C/C=C1\NC(=O)[C@@H](NC(=O)[C@@H](NC(=O)[C@H](C)NC(=O)C/C(C)=C/Cl)[C@@H](C)CC)[C@@H](C)OC(=O)[C@H](C(C)C)NC(=O)[C@H](Cc2ccc(O)cc2)N(C)C(=O)[C@H](Cc2ccccc2)N2C(=O)[C@H](CC[C@H]2O)NC1=O [Tutuilamide A]
Chymotrypsin [1]; [3]
  IC50: 1000 nM

## CC(C)C[C@@H]1NC(=O)[C@@H](NC(=O)[C@@H](NC(=O)[C@H](C)NC(=O)[C@H](CCCc2ccc(O)cc2)NC(=O)[C@H](O)CO)C(C)C)[C@@H](C)OC(=O)[C@H](C(C)C)NC(=O)[C@H](Cc2ccc(O)c(Br)c2)N(C)C(=O)[C@@H]2[C@H](C)O[C@@H]3CC[C@H](NC1=O)C(=O)N23 [Largamide D oxazolidine]
Chymotrypsin [1]; [3]
  IC50: 928 nM

## Micropeptin KB991
Chymotrypsin [1]; [3]
  IC50: 870 nM

## CCCCCC(=O)NC(CC(=O)O)C(=O)NC1C(=O)NC(Cc2ccc(O)cc2)C(=O)NC2CCC(O)N(C2=O)C(Cc2ccccc2)C(=O)N(C)C(CCc2ccc(O)cc2)C(=O)NC(C(C)C)C(=O)OC1C (stereo not shown) [Cyanopeptolin CP1027]
Chymotrypsin [1]; [3]
  IC50: 260 nM

## Microcystin 996
Chymotrypsin [1]
  IC50: 640 nM

## C/C=C1\NC(=O)[C@@H](NC(=O)[C@@H](NC(=O)[C@H](C)NC(=O)C/C(C)=C/Cl)C(C)C)[C@@H](C)OC(=O)[C@H](C(C)C)NC(=O)[C@H](Cc2ccc(O)cc2)N(C)C(=O)[C@H](Cc2ccccc2)N2C(=O)[C@H](CC[C@H]2O)NC1=O [Tutuilamide B]
Chymotrypsin [1]; [3]
  IC50: 577 nM

## CC[C@@H](C)[C@H]1NC(=O)[C@@H](Cc2ccccc2)N(C)C(=O)[C@@H](CC(C)C)N2C(=O)[C@@H](CC[C@@H]2O)NC(=O)[C@@H](Cc2ccc(O)cc2)NC(=O)[C@H](NC(=O)[C@H](CCC(N)=O)NC(=O)[C@H](O)Cc2ccc(O)cc2)[C@@H](C)OC1=O [Micropeptin DR1056]
Chymotrypsin [1]; [3]
  IC50: 1600 nM

## Cyanopeptolin CP992
Chymotrypsin [1]; [3]
  IC50: 240 nM

## Tutuilamide C
Chymotrypsin [1]; [3]
  IC50: 542 nM

## Cyanopeptolin CP1018
Chymotrypsin [1]; [3]
  IC50: 240 nM

## CCCCCCCC(=O)N[C@@H](CCC(=O)O)C(=O)N[C@@H]1C(=O)N[C@@H](Cc2ccc(O)cc2)C(=O)N[C@H]2CC[C@@H](O)N(C2=O)[C@@H](Cc2ccccc2)C(=O)N(C)[C@@H](Cc2ccc(O)cc2)C(=O)N[C@@H](C(C)C)C(=O)O[C@@H]1C [Micropeptin D]
Chymotrypsin [1]; [3]
  IC50: 1200 nM

## CC[C@H](C)[C@@H]1NC(=O)[C@H](Cc2ccccc2)N(C)C(=O)[C@H](C(C)C)N2C(=O)[C@H](CC[C@H]2O)NC(=O)[C@H](CC2C=CC(O)CC2)NC(=O)[C@@H](NC(=O)[C@@H](CCC(N)=O)NC(=O)C(O)Cc2ccc(O)cc2)[C@H](C)OC1=O (stereo partly shown) [Micropeptin KB1046]
Chymotrypsin [1]; [3]
  IC50: 220 nM

## Cyanopeptolin CP978
Chymotrypsin [1]; [3]
  IC50: 260 nM

## CC=C1NC(=O)[C@@H](NC(=O)[C@@H](NC(=O)[C@@H]2CCCN2C(=O)CCC)[C@@H](C)OC(=O)C2CCCN2C(=O)CCC)[C@@H](C)OC(=O)[C@H](C(C)C)NC(=O)[C@H](Cc2ccc(O)cc2)N(C)C(=O)[C@H](Cc2ccccc2)N2C(=O)[C@H](CC[C@H]2O)NC1=O (stereo partly shown) [Rivulariapeptolide 1155, rivulariapeptolide 1155]
Proteinase K
  IC50: 56.5 nM
Proteinase K; [4]
  Mean (RFU/s): 6.603 RFU/s
Proteinase K; [5]
  Mean (RFU/s): 6.245 RFU/s
Proteinase K; [6]
  Mean (RFU/s): 6.403 RFU/s
Proteinase K; [7]
  Mean (RFU/s): 6.159 RFU/s
Proteinase K; [8]
  Mean (RFU/s): 6.088 RFU/s
Proteinase K; [9]
  Mean (RFU/s): 5.497 RFU/s
Proteinase K; [10]
  Mean (RFU/s): 4.358 RFU/s
Proteinase K; [11]
  Mean (RFU/s): 1.504 RFU/s
Proteinase K; [12]
  Mean (RFU/s): 0.363 RFU/s
Proteinase K; [13]
  Mean (RFU/s): 0.09033 RFU/s
Proteinase K; [14]
  Mean (RFU/s): 0.027 RFU/s
Chymotrypsin [2]; [15]
  IC50: 41.8 nM
Chymotrypsin [2]; [16]
  Mean (RFU/s): 5.293 RFU/s
Chymotrypsin [2]; [17]
  Mean (RFU/s): 5.198 RFU/s
Chymotrypsin [2]; [18]
  Mean (RFU/s): 5.411 RFU/s
Chymotrypsin [2]; [19]
  Mean (RFU/s): 5.774 RFU/s
Chymotrypsin [2]; [20]
  Mean (RFU/s): 4.968 RFU/s
Chymotrypsin [2]; [21]
  Mean (RFU/s): 4.399 RFU/s
Chymotrypsin [2]; [22]
  Mean (RFU/s): 2.874 RFU/s
Chymotrypsin [2]; [23]
  Mean (RFU/s): 1.339 RFU/s
Chymotrypsin [2]; [24]
  Mean (RFU/s): 0.494 RFU/s
Chymotrypsin [2]; [25]
  Mean (RFU/s): 0.1737 RFU/s
Chymotrypsin [2]; [26]
  Mean (RFU/s): 0 RFU/s
Chymotrypsin [2]; [27]
  IC50: 41.8 nM
Elastase
  IC50: 4.94 nM
Elastase; [4]
  Mean (RFU/s): 0.9773 RFU/s
Elastase; [5]
  Mean (RFU/s): 0.8963 RFU/s
Elastase; [6]
  Mean (RFU/s): 0.839 RFU/s
Elastase; [7]
  Mean (RFU/s): 0.7733 RFU/s
Elastase; [8]
  Mean (RFU/s): 0.5503 RFU/s
Elastase; [9]
  Mean (RFU/s): 0.1703 RFU/s
Elastase; [10]
  Mean (RFU/s): 0.054 RFU/s
Elastase; [11]
  Mean (RFU/s): 0 RFU/s
Elastase; [12]
  Mean (RFU/s): 0 RFU/s
Elastase; [13]
  Mean (RFU/s): 0 RFU/s
Elastase; [14]
  Mean (RFU/s): 0 RFU/s

## CC=C1NC(=O)[C@@H](NC(=O)[C@@H](NC(=O)[C@@H]2CCCN2C(=O)CCC)[C@@H](C)OC(=O)C2CCCN2C(=O)CCC)[C@@H](C)OC(=O)[C@H](C(C)C)NC(=O)[C@H](Cc2ccc(O)cc2)N(C)C(=O)[C@H](CC(C)C)N2C(=O)[C@H](CC[C@H]2O)NC1=O (stereo partly shown) [Rivulariapeptolide 1121, rivulariapeptolide 1121]
Proteinase K
  IC50: 48 nM
Proteinase K; [4]
  Mean (RFU/s): 6.561 RFU/s
Proteinase K; [5]
  Mean (RFU/s): 6.281 RFU/s
Proteinase K; [6]
  Mean (RFU/s): 6.268 RFU/s
Proteinase K; [7]
  Mean (RFU/s): 6.292 RFU/s
Proteinase K; [8]
  Mean (RFU/s): 6.214 RFU/s
Proteinase K; [9]
  Mean (RFU/s): 5.471 RFU/s
Proteinase K; [10]
  Mean (RFU/s): 4.069 RFU/s
Proteinase K; [11]
  Mean (RFU/s): 0.93 RFU/s
Proteinase K; [12]
  Mean (RFU/s): 0.1023 RFU/s
Proteinase K; [13]
  Mean (RFU/s): 0 RFU/s
Proteinase K; [14]
  Mean (RFU/s): 0 RFU/s
Chymotrypsin [2]; [15]
  IC50: 35.5 nM
Chymotrypsin [2]; [16]
  Mean (RFU/s): 4.522 RFU/s
Chymotrypsin [2]; [17]
  Mean (RFU/s): 4.745 RFU/s
Chymotrypsin [2]; [18]
  Mean (RFU/s): 4.969 RFU/s
Chymotrypsin [2]; [19]
  Mean (RFU/s): 4.65 RFU/s
Chymotrypsin [2]; [20]
  Mean (RFU/s): 4.6 RFU/s
Chymotrypsin [2]; [21]
  Mean (RFU/s): 4.156 RFU/s
Chymotrypsin [2]; [22]
  Mean (RFU/s): 1.852 RFU/s
Chymotrypsin [2]; [23]
  Mean (RFU/s): 1.527 RFU/s
Chymotrypsin [2]; [24]
  Mean (RFU/s): 0.623 RFU/s
Chymotrypsin [2]; [25]
  Mean (RFU/s): 0.1967 RFU/s
Chymotrypsin [2]; [26]
  Mean (RFU/s): 0 RFU/s
Chymotrypsin [2]; [27]
  IC50: 35.5 nM
Elastase
  IC50: 13.2 nM
Elastase; [4]
  Mean (RFU/s): 0.8433 RFU/s
Elastase; [5]
  Mean (RFU/s): 0.7923 RFU/s
Elastase; [6]
  Mean (RFU/s): 0.7877 RFU/s
Elastase; [7]
  Mean (RFU/s): 0.7943 RFU/s
Elastase; [8]
  Mean (RFU/s): 0.7343 RFU/s
Elastase; [9]
  Mean (RFU/s): 0.4323 RFU/s
Elastase; [10]
  Mean (RFU/s): 0.094 RFU/s
Elastase; [11]
  Mean (RFU/s): 0.02167 RFU/s
Elastase; [12]
  Mean (RFU/s): 0 RFU/s
Elastase; [13]
  Mean (RFU/s): 0 RFU/s
Elastase; [14]
  Mean (RFU/s): 0 RFU/s
